Data: US20210300924A1, “5-[6-[[3-(4,5,6,7-TETRAHYDROPYRAZOLO[4,3-C]PYRIDIN-1-YL)AZETIDIN-1-YL]METHYL]MORPHOLIN-4-YL]QUINOLINE-8-CARBONITRILE DERIVATIVES AND SIMILAR COMPOUNDS AS TLR7-9 ANTAGONISTS FOR TREATING SYSTEMIC LUPUS ERYTHEMATOSUS” (Hoffmann-La Roche Inc., priority 2018, published 2021)
Read-outs that look alike come from different tables or passages of the source.

Key:
[1] = molecular target: T1, hERG channel (Homo sapiens, UniProt Q12809); test: hERG channel inhibition assay (patch-clamp, CHOhERG cells); assay type: cell-based; settings: for safety window (hERG IC20/TLR7/8/9 IC50) compared to the compounds of this invention: in words; for hERG IC20/TLR7 IC50 / hERG IC20/TLR9 IC50 / hERG IC20/TLR8 IC50: safety ratio, >30 suggests sufficient window
T1 construct: expressed in transfected cells; host or cells: CHO (Chinese hamster ovary), CHOhERG
Protocol: hERG Channel Inhibition Assay:
The hERG K^+ channels were cloned in humans and stably expressed in a CHO (Chinese hamster ovary) cell line. CHOhERG cells were used for patch-clamp (voltage-clamp, whole-cell) experiments. Cells were stimulated by a voltage pattern to activate hERG channels and conduct hERG currents (rapid delayed outward rectifier potassium current of the hERG channel). After the cells were stabilized for a few minutes, the amplitude and kinetics of IKhERG were recorded at a stimulation frequency of 0.1 Hz (6 bpm). Thereafter, the test compound was added to the preparation at increasing concentrations. For each concentration, an attempt was made to reach a steady-state effect, usually, this was achieved within 3-10 min at which time the next highest concentration was applied. The amplitude and kinetics of IKhERG are recorded in each concentration of the drug which were compared to the control values (taken as 100%). (references: Redfern W S, Carlsson L, Davis A S, Lynch W G, MacKenzie I, Palethorpe S, Siegl P K, Strang I, Sullivan A T, Wallis R, Camm A J, Hammond T G. 2003; Relationships between preclinical cardiac electrophysiology, clinical QT interval prolongation and torsade de pointes for a broad range of drugs: evidence for a provisional safety margin in drug development. Cardiovasc. Res. 58:32-45, Sanguinetti MC, Tristani-Firouzi M. 2006; hERG potassium channels and cardiac arrhythmia. Nature 440:463-469, Webster R, Leishman D, Walker D. 2002; Towards a drug concentration effect relationship for QT prolongation and torsades de pointes. Curr. Opin. Drug Discov. Devel. 5:116-26).

[2] = molecular target: T2, TLR9 (Homo sapiens, UniProt Q9NR96); design: host or cells: HEK cells; settings: data disclosed in US20150105370; read-out: HEK/hTLR9 IC50; cited from earlier work
T2 sequence (Q9NR96 26-1032): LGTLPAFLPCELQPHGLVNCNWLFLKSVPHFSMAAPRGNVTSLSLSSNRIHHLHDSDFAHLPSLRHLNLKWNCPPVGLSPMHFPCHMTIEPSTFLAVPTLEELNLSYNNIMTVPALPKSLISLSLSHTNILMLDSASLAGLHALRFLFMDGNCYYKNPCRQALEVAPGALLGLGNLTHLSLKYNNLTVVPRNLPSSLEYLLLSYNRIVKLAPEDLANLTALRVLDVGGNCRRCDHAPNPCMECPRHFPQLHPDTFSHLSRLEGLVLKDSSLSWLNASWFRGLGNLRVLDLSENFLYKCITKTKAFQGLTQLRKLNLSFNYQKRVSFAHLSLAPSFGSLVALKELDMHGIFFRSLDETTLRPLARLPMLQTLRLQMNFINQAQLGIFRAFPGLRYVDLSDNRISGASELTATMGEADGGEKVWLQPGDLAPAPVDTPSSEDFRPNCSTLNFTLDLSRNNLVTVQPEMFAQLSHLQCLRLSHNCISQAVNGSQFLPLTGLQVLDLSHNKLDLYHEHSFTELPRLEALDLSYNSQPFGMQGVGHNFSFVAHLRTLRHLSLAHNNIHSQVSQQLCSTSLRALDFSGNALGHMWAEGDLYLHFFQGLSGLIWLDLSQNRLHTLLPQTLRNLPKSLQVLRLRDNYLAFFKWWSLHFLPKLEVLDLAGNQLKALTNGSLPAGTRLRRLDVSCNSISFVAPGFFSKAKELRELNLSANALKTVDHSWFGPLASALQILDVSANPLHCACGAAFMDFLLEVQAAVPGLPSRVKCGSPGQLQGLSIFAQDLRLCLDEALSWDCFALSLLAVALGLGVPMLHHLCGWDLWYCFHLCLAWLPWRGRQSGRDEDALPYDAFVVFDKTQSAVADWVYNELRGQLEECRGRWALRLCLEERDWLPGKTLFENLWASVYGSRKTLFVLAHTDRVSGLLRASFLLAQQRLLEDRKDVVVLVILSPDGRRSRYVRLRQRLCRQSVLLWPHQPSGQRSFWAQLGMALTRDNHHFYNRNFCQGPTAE

[3] = molecular target: T2, TLR9; test: Human PBMC cell-based assay; design: endogenous in cells; host or cells: human PBMC from healthy donor whole blood; settings: CpG ODN 2216 stimulation, overnight, cytokine readout, read-out: hPBMC/TLR9 IC50
Excerpt: Human PBMC Cell-Based Assay
Unlike the HEK reporter cell lines, human peripheral blood mononuclear cell (PBMC) represents primary human immune cells in blood mainly consisting of lymphocytes, monocytes, and dendritic cells. These cells express TLR7, TLR8, or TLR9, and therefore are natural responders to respective ligand stimulation. Upon activation of these TLRs, PBMCs secrete similar cytokines and chemokines in vitro and in vivo, and therefore the in vitro potency of a TLR7/8/9 antagonist in human PBMC is readily translatable to its pharmacodynamics response in vivo.
Human peripheral blood mononuclear cells (PBMC) were isolated from freshly-drawn lithium-heparinized (Lithium Heparin Plus blood Collection tube, BD Vacutainer®) healthy donor whole blood by density gradient (Ficoll-Paque™ PLUS, GE Healthcare life Sciences). Briefly, […] was diluted with 25 mL PBS (without Ca^2+, Mg^2+) in a 50 mL conical tube with porous barrier (Leucosep tube, Greiner bio-one), where 15.5 mL Ficoll-Paque was under laid after spinning. Tubes were centrifuged for 20 minutes at 800×g (1946 rpm) with the brake in the off position, and PBMC were collected from the buffy coat. Cells were then washed twice in PBS, and red blood cells were lysed by suspension in 2 mL (Red Blood Cell Lysis Buffer, Alfa Aesar) for 5-10 minutes at room temperature. After a final wash in PBS, PBMC were resuspended at a final concentration of 2×10^6 cells/mL in RPMI-1640 media with GlutaMAX™ (Gibco) supplemented with 10% Fetal Bovine Serum (Sigma) and plated at 150 μL/well (3×10^5 cells/well) in tissue culture treated round bottom 96-well plates (Corning Incorporated). Antagonist compounds (compounds of this invention) solubilized and serial diluted in 100% DMSO were added in duplicate to cells to yield a final concentration of 1% DMSO (v/v). PBMC were incubated with antagonist compounds for 30 minutes at 37° C., 5% CO2 before adding various TLR agonist reagents in 48 μL complete media per well as follows (final concentrations indicated): CpG ODN 2216 (InvivoGen) at […] for TLR9, ORN 06/LyoVec (InvivoGen) at 1 μg/mL for TLR8 and R848 (InvivoGen) at 1 μg/mL for TLR7 and TLR8. PBMC were incubated overnight at 37° C. with 5% CO2. Cell culture supernatants were collected, and levels of various human cytokines were assessed by Luminex assay (ProcartaPlex™ Multiplex Immunoassay, Invitrogen) or ELISA procedure according to the manufacturer's recommended protocol (eBioscience, ThermoFisher Scientific). Viability of the cells was also checked with Cell Viability Assay (CellTiter Glo® Luminescent Cell Viability Assay, Promega).

T1 sequence (Q12809 whole entry): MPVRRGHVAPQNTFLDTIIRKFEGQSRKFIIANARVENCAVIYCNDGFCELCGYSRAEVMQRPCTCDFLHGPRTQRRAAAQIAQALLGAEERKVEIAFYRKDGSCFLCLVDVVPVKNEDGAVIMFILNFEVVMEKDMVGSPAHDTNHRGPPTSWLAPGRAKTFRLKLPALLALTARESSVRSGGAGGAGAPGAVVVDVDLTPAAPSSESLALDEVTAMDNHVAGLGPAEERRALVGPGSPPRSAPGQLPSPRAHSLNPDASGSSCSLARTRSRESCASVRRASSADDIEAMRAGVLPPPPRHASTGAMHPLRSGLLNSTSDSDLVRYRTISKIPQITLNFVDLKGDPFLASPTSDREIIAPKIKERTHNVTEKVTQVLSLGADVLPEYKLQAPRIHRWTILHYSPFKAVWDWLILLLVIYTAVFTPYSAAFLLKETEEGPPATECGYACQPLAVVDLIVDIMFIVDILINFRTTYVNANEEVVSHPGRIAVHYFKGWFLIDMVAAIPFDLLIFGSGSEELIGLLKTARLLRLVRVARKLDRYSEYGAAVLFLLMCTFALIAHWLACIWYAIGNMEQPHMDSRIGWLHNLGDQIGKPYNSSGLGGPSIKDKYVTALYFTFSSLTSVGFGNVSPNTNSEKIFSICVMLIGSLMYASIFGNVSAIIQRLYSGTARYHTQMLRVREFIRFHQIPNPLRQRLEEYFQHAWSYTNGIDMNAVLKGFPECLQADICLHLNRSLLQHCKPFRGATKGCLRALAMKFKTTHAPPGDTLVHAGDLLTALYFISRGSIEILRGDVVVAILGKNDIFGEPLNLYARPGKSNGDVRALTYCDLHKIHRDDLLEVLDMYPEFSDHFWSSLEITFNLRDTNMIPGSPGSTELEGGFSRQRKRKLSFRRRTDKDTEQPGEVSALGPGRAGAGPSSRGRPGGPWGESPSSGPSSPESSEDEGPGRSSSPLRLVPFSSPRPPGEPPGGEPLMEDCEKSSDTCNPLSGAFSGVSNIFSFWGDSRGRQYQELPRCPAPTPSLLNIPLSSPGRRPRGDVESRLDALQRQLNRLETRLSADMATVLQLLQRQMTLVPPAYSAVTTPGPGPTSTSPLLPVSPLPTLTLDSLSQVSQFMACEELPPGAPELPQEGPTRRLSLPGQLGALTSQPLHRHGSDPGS

IC50 [3] [µM]	SMILES	safety window (hERG IC20/TLR7/8/9 IC50) compared to the compounds of this invention [1]	hERG IC20/TLR7 IC50 [1]	hERG IC20/TLR9 IC50 [1]	IC50 [2] [µM]	hERG IC20/TLR8 IC50 [1]
	C[C@@H]1CN(c2ccc(C#N)c3ncccc23)C[C@H](CN2CCN(c3ccccc3)CC2)O1 [ER-887258, reference compound]	much narrower safety window	8.1	0.3	> 2	
	C[C@@H]1CN(c2ccc(C#N)c3ncccc23)C[C@H](CN2CCN(c3ccccn3)CC2)O1 [ER-888285, reference compound]	much narrower safety window	8.4	0.5	> 2	
1.63	C[C@@H]1CN(c2ccc(C#N)c3ncccc23)C[C@H](CN2CCN(c3ccncc3)CC2)O1 [ER-888286, reference compound]	much narrower safety window	0.3	0.2	> 2	
	C[C@@H]1CN(c2ccc(C#N)c3ncccc23)C[C@H](CN2CC(NS(=O)(=O)c3ccc(F)cc3)C2)O1 [ER-894155]				> 10	
	Cc1nn(C)cc1S(=O)(=O)NC1CCN(C[C@H]2CN(c3ccc(C#N)c4ncccc34)C[C@@H](C)O2)CC1 [ER-894160]				> 10	
	C[C@@H]1CN(c2ccc(C#N)c3ncccc23)C[C@H](CN2CC[C@@H](NC(=O)c3ccccc3)C2)O1 [ER-894544]				> 6.2	
	COc1ccc(N2CCN(C[C@H]3CN(c4ccc(C#N)c5ncccc45)C[C@@H](C)O3)CC2)cc1 [Example R1, 5-[(2S,6R)-2-[[4-(4-methoxyphenyl)piperazin-1-yl]methyl]-6-methyl-morpholin-4-yl]quinoline-8-carbonitrile, reference compound]	much narrower safety window	9.3	0.1		6.2
	C[C@@H]1CN(c2ccc(C#N)c3ncccc23)C[C@H](CN2CCN(c3ccc(Cl)cc3)CC2)O1 [Example R2, 5-[(2S,6R)-2-[[4-(4-chlorophenyl)piperazin-1-yl]methyl]-6-methyl-morpholin-4-yl]quinoline-8-carbonitrile, reference compound]	much narrower safety window	1.3	0.04		0.8
